Experimental data published in ChEMBL document CHEMBL1777708, “An expeditious access to 5-pyrimidinol derivatives from cyclic methylglyoxal diadducts, formation of argpyrimidines under physiological conditions and discovery of new CFTR inhibitors” (Eur J Med Chem, 2011).
Activity calls are given as the source filed them. The rule behind the calls is not given here.

Key:
[1] = Dissociation constant, pKa of the compound by spectrophotometry; assay type: physicochemical
[2] = molecular target: Cystic fibrosis transmembrane conductance regulator (Homo sapiens) (UniProt P13569); test: Inhibition of wild type CFTR expressed in CHO cells by [125I]iodide efflux assay; assay type: cell-based
Cystic fibrosis transmembrane conductance regulator (Homo sapiens), sequence (P13569 whole entry, looked up): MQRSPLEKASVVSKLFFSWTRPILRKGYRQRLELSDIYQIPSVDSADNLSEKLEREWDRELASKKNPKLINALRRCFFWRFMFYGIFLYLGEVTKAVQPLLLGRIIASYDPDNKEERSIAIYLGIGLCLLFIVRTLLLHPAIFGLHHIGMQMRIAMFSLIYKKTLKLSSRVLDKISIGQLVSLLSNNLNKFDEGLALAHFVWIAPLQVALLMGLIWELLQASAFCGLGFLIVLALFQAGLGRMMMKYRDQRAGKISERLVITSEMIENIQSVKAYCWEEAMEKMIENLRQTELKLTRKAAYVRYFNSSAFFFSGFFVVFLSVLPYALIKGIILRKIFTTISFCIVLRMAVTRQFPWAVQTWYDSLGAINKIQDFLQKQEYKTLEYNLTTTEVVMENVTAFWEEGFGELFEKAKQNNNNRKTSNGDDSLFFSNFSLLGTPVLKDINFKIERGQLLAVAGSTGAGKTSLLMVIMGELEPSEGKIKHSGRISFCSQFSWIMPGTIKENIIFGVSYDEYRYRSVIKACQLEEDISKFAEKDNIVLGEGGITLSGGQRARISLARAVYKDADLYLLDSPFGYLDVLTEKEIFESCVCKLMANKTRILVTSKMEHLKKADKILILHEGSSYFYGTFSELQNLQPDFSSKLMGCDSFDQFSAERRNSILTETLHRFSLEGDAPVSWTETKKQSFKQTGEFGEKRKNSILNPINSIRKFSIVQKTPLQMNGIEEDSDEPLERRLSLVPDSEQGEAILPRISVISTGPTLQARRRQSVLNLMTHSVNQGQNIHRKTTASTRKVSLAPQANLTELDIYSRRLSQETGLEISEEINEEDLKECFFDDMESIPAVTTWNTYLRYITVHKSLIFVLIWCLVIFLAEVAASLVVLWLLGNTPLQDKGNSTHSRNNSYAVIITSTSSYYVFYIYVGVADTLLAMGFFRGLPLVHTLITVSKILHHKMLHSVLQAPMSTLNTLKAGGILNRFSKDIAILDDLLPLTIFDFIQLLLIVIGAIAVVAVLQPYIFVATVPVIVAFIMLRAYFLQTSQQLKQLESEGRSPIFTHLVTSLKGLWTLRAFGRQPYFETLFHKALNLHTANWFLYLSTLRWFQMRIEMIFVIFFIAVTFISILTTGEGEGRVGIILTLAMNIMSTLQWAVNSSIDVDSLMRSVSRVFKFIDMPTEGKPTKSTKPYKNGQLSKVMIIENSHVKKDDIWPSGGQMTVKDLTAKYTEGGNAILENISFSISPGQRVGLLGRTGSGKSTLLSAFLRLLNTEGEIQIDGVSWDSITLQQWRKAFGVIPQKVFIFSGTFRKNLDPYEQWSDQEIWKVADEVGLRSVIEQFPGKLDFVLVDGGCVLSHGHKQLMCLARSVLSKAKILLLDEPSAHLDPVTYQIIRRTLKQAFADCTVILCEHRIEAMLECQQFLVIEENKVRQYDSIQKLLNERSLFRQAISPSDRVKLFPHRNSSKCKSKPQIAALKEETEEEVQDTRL

pKa [1] | inhibition [2] | Structure (SMILES)
4 | – | Cc1nc2c3ccccc3cc[n+]2c(C)c1[O-]
– | inactive | C[C@]1(C(=O)O)N=C2C=CC=CN2[C@](C)(O)[C@@H]1O
– | inactive | C[C@]1(C(=O)O)N=C2C=CC=CN2[C@](C)(O)[C@H]1O
